Experimental data: patent US20070116781A1, “Hydrogen Cyanamide Pesticide Formulations” (priority 2005, published 2007)

How the values were obtained:
yellow nutsedge [1] = assay: Herbicidal activity, phosphate-free cyanamide and propionic acid, post-emergence, uncovered pots; format: in vivo, Cyperus esculentus
Source text: The procedures in this example differed from those of Example 2, however, by the use of hydrogen cyanamide crystals free of phosphate ion to prepare the aqueous hydrogen cyanamide solution, by the use of post-emergence application, and by the omission of any covering of the pots during any part of the test. Observations were made for total weed growth, and individual observations were also made for yellow nutsedge, crabgrass, sicklepod, and momingglory. Stock solutions of hydrogen cyanamide at 1.25% by weight and propionic acid at 5.0% by weight, both in water, were prepared as before, except that the hydrogen cyanamide solution, as noted above, was prepared by dissolving hydrogen cyanamide crystals in water in the absence of phosphate ion. […] The weeds were allowed to grow for three weeks before the treatment chemicals were applied. […] Data analyses were performed in the same manner as Examples 1 and 2. Table IX lists the results in weeds per pot for all weeds, Table X for yellow nutsedge, Table XI for crabgrass, Table XII for sicklepod, and Table XIII for morningglory, all both with propionic acid alone at various application […]

sicklepod [2] = assay: Herbicidal activity, cyanamide and propionic acid, pre-emergence, covered pots; format: in vivo, Senna obtusifolia
Method: (§1) The weeds used in these tests were grown from a standard weed seed pack of common annual and perennial weeds representing an extreme weed situation. The weeds included yellow nutsedge (Cyperus esculentus), crabgrass (Digitaria sanguinalis), pigweed (Amaranthus spp.), momingglory (Ipomoea spp.), sicklepod (Senna obtusifolia) and other annual weeds. Observations of the effects on the weed population as a whole were made, and individual observations were made for yellow nutsedge, crabgrass, and sicklepod. Stock solutions of hydrogen cyanamide at 1.25% by weight and propionic acid at 5.0% by weight, both in water, were prepared, the hydrogen cyanamide from a phosphate-buffered 50% aqueous solution. […] Data analyses were performed in the same manner as Example 1. The results expressed in weeds per pot are listed in Table V for all weeds, Table VI for yellow nutsedge, Table VII for crabgrass, and Table VIII for sicklepod, all at various application rates for both hydrogen cyanamide and propionic acid.

crabgrass = assay: Herbicidal activity, cyanamide and citric acid, pre-emergence, covered pots; format: in vivo, Digitaria sanguinalis
Method: (§2) The weeds used in these tests were grown from a standard weed seed pack of common annual and perennial weeds representing an extreme weed situation. The weeds included crabgrass (Digitaria sanguinalis), yellow nutsedge (Cyperus esculentus), […] (Ipomoea spp.), pigweed (Amaranthus spp.), and other annual weeds. Observations of the effects on the weed population as a whole were made, and individual observations were made for crabgrass, yellow nutsedge, sicklepod, morningglory, and pigweed. Stock solutions of hydrogen cyanamide at 1.25% by weight and citric acid at 5.0% by weight, both in water, were prepared, the hydrogen cyanamide from a phosphate-buffered 50% aqueous solution. […] Data analyses were performed in the same manner as Example 1. The results expressed in weeds per pot are listed in Table XIV for all weeds, Table XV for crabgrass, Table XVI for yellow nutsedge, Table XVII for sicklepod, Table XVIII for morningglory, and Table XIX for pigweed, all at various application rates for hydrogen cyanamide, with and without citric acid.

yellow nutsedge [3] = assay: as above; format: in vivo, Cyperus esculentus
Method: as §2

sicklepod [4] = assay: as above; format: in vivo, Senna obtusifolia
Method: as §2

combined weed species = assay: as above; format: in vivo
Method: as §2

all weeds = assay: Herbicidal activity, cyanamide and propionic acid, pre-emergence, covered pots; format: in vivo
Method: as §1

[5] = 8 d after treatment, cyanamide 75 mg/kg soil
[6] = 8 d after treatment, cyanamide 150 mg/kg soil
[7] = 14 d after treatment, cyanamide 75 mg/kg soil
[8] = 14 d after treatment, cyanamide 150 mg/kg soil
[9] = 20 d after treatment, cyanamide 75 mg/kg soil
[10] = 20 d after treatment, cyanamide 150 mg/kg soil
[11] = 27 d after treatment, cyanamide 75 mg/kg soil
[12] = 27 d after treatment, cyanamide 150 mg/kg soil
[13] = 9 d after treatment, cyanamide 50 mg/kg soil
[14] = 9 d after treatment, cyanamide 100 mg/kg soil
[15] = 9 d after treatment, cyanamide 150 mg/kg soil
[16] = 9 d after treatment, cyanamide 200 mg/kg soil
[17] = 9 d after treatment, cyanamide 250 mg/kg soil
[18] = 13 d after treatment, cyanamide 50 mg/kg soil
[19] = 13 d after treatment, cyanamide 100 mg/kg soil
[20] = 13 d after treatment, cyanamide 150 mg/kg soil
[21] = 13 d after treatment, cyanamide 200 mg/kg soil
[22] = 13 d after treatment, cyanamide 250 mg/kg soil
[23] = 19 d after treatment, cyanamide 50 mg/kg soil
[24] = 19 d after treatment, cyanamide 100 mg/kg soil
[25] = 19 d after treatment, cyanamide 150 mg/kg soil
[26] = 19 d after treatment, cyanamide 200 mg/kg soil
[27] = 19 d after treatment, cyanamide 250 mg/kg soil
[28] = 26 d after treatment, cyanamide 50 mg/kg soil
[29] = 26 d after treatment, cyanamide 100 mg/kg soil
[30] = 26 d after treatment, cyanamide 150 mg/kg soil
[31] = 26 d after treatment, cyanamide 200 mg/kg soil
[32] = 26 d after treatment, cyanamide 250 mg/kg soil

CCC(=O)O [C2H5CO2H, propionic acid]
Weeds Per Pot: Yellow Nutsedge (yellow nutsedge [1]; 6 d after treatment, C2H5CO2H 100 mg/kg soil): 2.4 | Weeds Per Pot: Yellow Nutsedge (yellow nutsedge [1]; 6 d after treatment, C2H5CO2H 200 mg/kg soil): 4 | Weeds Per Pot: Yellow Nutsedge (yellow nutsedge [1]; 6 d after treatment, C2H5CO2H 300 mg/kg soil): 1.9 | Weeds Per Pot: Yellow Nutsedge (yellow nutsedge [1]; 6 d after treatment, C2H5CO2H 400 mg/kg soil): 3 | Weeds Per Pot: Yellow Nutsedge (yellow nutsedge [1]; 6 d after treatment, C2H5CO2H 500 mg/kg soil): 2.1 | Weeds Per Pot: Yellow Nutsedge (yellow nutsedge [1]; 13 d after treatment, C2H5CO2H 100 mg/kg soil): 3 | Weeds Per Pot: Yellow Nutsedge (yellow nutsedge [1]; 13 d after treatment, C2H5CO2H 200 mg/kg soil): 4.9 | Weeds Per Pot: Yellow Nutsedge (yellow nutsedge [1]; 13 d after treatment, C2H5CO2H 300 mg/kg soil): 3.3 | Weeds Per Pot: Yellow Nutsedge (yellow nutsedge [1]; 13 d after treatment, C2H5CO2H 400 mg/kg soil): 4.7 | Weeds Per Pot: Yellow Nutsedge (yellow nutsedge [1]; 13 d after treatment, C2H5CO2H 500 mg/kg soil): 3.9 | Weeds Per Pot: Yellow Nutsedge (yellow nutsedge [1]; 20 d after treatment, C2H5CO2H 100 mg/kg soil): 3.1 | Weeds Per Pot: Yellow Nutsedge (yellow nutsedge [1]; 20 d after treatment, C2H5CO2H 200 mg/kg soil): 5.4 | Weeds Per Pot: Yellow Nutsedge (yellow nutsedge [1]; 20 d after treatment, C2H5CO2H 300 mg/kg soil): 4.7 | Weeds Per Pot: Yellow Nutsedge (yellow nutsedge [1]; 20 d after treatment, C2H5CO2H 400 mg/kg soil): 5.3 | Weeds Per Pot: Yellow Nutsedge (yellow nutsedge [1]; 20 d after treatment, C2H5CO2H 500 mg/kg soil): 4.1

N#CN [Cyanamide, hydrogen cyanamide]
Weeds Per Pot: Sicklepod (sicklepod [2]; [5]): 1 | Weeds Per Pot: Sicklepod (sicklepod [2]; [6]): 0.4 | Weeds Per Pot: Sicklepod (sicklepod [2]; [7]): 1.9 | Weeds Per Pot: Sicklepod (sicklepod [2]; [8]): 2.1 | Weeds Per Pot: Sicklepod (sicklepod [2]; [9]): 2 | Weeds Per Pot: Sicklepod (sicklepod [2]; [10]): 2.7 | Weeds Per Pot: Sicklepod (sicklepod [2]; [11]): 2.4 | Weeds Per Pot: Sicklepod (sicklepod [2]; [12]): 3.1 | Weeds Per Pot: Crabgrass (crabgrass; [13]): 4.3 | Weeds Per Pot: Crabgrass (crabgrass; [14]): 1.6 | Weeds Per Pot: Crabgrass (crabgrass; [15]): 0 | Weeds Per Pot: Crabgrass (crabgrass; [16]): 0 | Weeds Per Pot: Crabgrass (crabgrass; [17]): 0 | Weeds Per Pot: Crabgrass (crabgrass; [18]): 7.4 | Weeds Per Pot: Crabgrass (crabgrass; [19]): 2.9 | Weeds Per Pot: Crabgrass (crabgrass; [20]): 0.4 | Weeds Per Pot: Crabgrass (crabgrass; [21]): 0 | Weeds Per Pot: Crabgrass (crabgrass; [22]): 0 | Weeds Per Pot: Crabgrass (crabgrass; [23]): 7.3 | Weeds Per Pot: Crabgrass (crabgrass; [24]): 3.4 | Weeds Per Pot: Crabgrass (crabgrass; [25]): 0.6 | Weeds Per Pot: Crabgrass (crabgrass; [26]): 0 | Weeds Per Pot: Crabgrass (crabgrass; [27]): 0 | Weeds Per Pot: Crabgrass (crabgrass; [28]): 9.6 | Weeds Per Pot: Crabgrass (crabgrass; [29]): 5.6 | Weeds Per Pot: Crabgrass (crabgrass; [30]): 1.4 | Weeds Per Pot: Crabgrass (crabgrass; [31]): 0 | Weeds Per Pot: Crabgrass (crabgrass; [32]): 0 | Weeds Per Pot: Yellow Nutsedge (yellow nutsedge [3]; [18]): 0.9 | Weeds Per Pot: Yellow Nutsedge (yellow nutsedge [3]; [19]): 0.4 | Weeds Per Pot: Yellow Nutsedge (yellow nutsedge [3]; [20]): 0.1 | Weeds Per Pot: Yellow Nutsedge (yellow nutsedge [3]; [21]): 0 | Weeds Per Pot: Yellow Nutsedge (yellow nutsedge [3]; [22]): 0 | Weeds Per Pot: Yellow Nutsedge (yellow nutsedge [3]; [23]): 2.4 | Weeds Per Pot: Yellow Nutsedge (yellow nutsedge [3]; [24]): 0.6 | Weeds Per Pot: Yellow Nutsedge (yellow nutsedge [3]; [25]): 0.6 | Weeds Per Pot: Yellow Nutsedge (yellow nutsedge [3]; [26]): 0 | Weeds Per Pot: Yellow Nutsedge (yellow nutsedge [3]; [27]): 0 | Weeds Per Pot: Yellow Nutsedge (yellow nutsedge [3]; [28]): 2.9 | Weeds Per Pot: Yellow Nutsedge (yellow nutsedge [3]; [29]): 1.7 | Weeds Per Pot: Yellow Nutsedge (yellow nutsedge [3]; [30]): 1.0 | Weeds Per Pot: Yellow Nutsedge (yellow nutsedge [3]; [31]): 0 | Weeds Per Pot: Yellow Nutsedge (yellow nutsedge [3]; [32]): 0 | Weeds Per Pot: Yellow Nutsedge (yellow nutsedge [1]; 6 d after treatment, cyanamide 150 mg/kg soil): 2.4 | Weeds Per Pot: Yellow Nutsedge (yellow nutsedge [1]; [20]): 4.6 | Weeds Per Pot: Yellow Nutsedge (yellow nutsedge [1]; [10]): 6 | Yellow nutsedge weeds per pot (yellow nutsedge [1]; hydrogen cyanamide 125 mg/kg of soil alone, all intervals): about six or fewer yellow nutsedge weeds per pot | Weeds Per Pot: Sicklepod (sicklepod [4]; [18]): 1.3 | Weeds Per Pot: Sicklepod (sicklepod [4]; [19]): 0.9 | Weeds Per Pot: Sicklepod (sicklepod [4]; [20]): 0.3 | Weeds Per Pot: Sicklepod (sicklepod [4]; [21]): 0 | Weeds Per Pot: Sicklepod (sicklepod [4]; [22]): 0 | Weeds Per Pot: Sicklepod (sicklepod [4]; [23]): 1.7 | Weeds Per Pot: Sicklepod (sicklepod [4]; [24]): 0.7 | Weeds Per Pot: Sicklepod (sicklepod [4]; [25]): 0.4 | Weeds Per Pot: Sicklepod (sicklepod [4]; [26]): 0.3 | Weeds Per Pot: Sicklepod (sicklepod [4]; [27]): 0 | Weeds Per Pot: Sicklepod (sicklepod [4]; [28]): 1.6 | Weeds Per Pot: Sicklepod (sicklepod [4]; [29]): 0.7 | Weeds Per Pot: Sicklepod (sicklepod [4]; [30]): 0.4 | Weeds Per Pot: Sicklepod (sicklepod [4]; [31]): 0.3 | Weeds Per Pot: Sicklepod (sicklepod [4]; [32]): 0.1 | Weeds Per Pot (combined weed species) (combined weed species; [13]): 15.0 | Weeds Per Pot (combined weed species) (combined weed species; [14]): 1.6 | Weeds Per Pot (combined weed species) (combined weed species; [15]): 0.2 | Weeds Per Pot (combined weed species) (combined weed species; [16]): 0 | Weeds Per Pot (combined weed species) (combined weed species; [17]): 0 | Weeds Per Pot (combined weed species) (combined weed species; [18]): 14.4 | Weeds Per Pot (combined weed species) (combined weed species; [19]): 14.0 | Weeds Per Pot (combined weed species) (combined weed species; [20]): 0.9 | Weeds Per Pot (combined weed species) (combined weed species; [21]): 0 | Weeds Per Pot (combined weed species) (combined weed species; [22]): 0 | Weeds Per Pot (combined weed species) (combined weed species; [23]): 11.2 | Weeds Per Pot (combined weed species) (combined weed species; [24]): 4.8 | Weeds Per Pot (combined weed species) (combined weed species; [25]): 1.6 | Weeds Per Pot (combined weed species) (combined weed species; [26]): 0.3 | Weeds Per Pot (combined weed species) (combined weed species; [27]): 0 | Weeds Per Pot (combined weed species) (combined weed species; [28]): 21.5 | Weeds Per Pot (combined weed species) (combined weed species; [29]): 10.0 | Weeds Per Pot (combined weed species) (combined weed species; [30]): 3.0 | Weeds Per Pot (combined weed species) (combined weed species; [31]): 0.8 | Weeds Per Pot (combined weed species) (combined weed species; [32]): 0.8 | Weeds Per Pot: All Weeds (all weeds; [5]): 2.6 | Weeds Per Pot: All Weeds (all weeds; [6]): 0.6 | Weeds Per Pot: All Weeds (all weeds; [7]): 8.7 | Weeds Per Pot: All Weeds (all weeds; [8]): 4.6 | Weeds Per Pot: All Weeds (all weeds; [9]): 15.1 | Weeds Per Pot: All Weeds (all weeds; [10]): 9.9 | Weeds Per Pot: All Weeds (all weeds; [11]): 17 | Weeds Per Pot: All Weeds (all weeds; [12]): 13.3
